# Reference: patent publication US11958865B1, “Leucine-rich repeat kinase 2 (LRRK2) inhibitors” (H. Lundbeck A/S, priority 2022, dated 2024)
# Like-named read-outs stand apart in the source and are kept apart here.
# Legend:
# LRRK2 WT = LRRK2 WT (Homo sapiens (Human), UniProt Q5S007); assay: LRRK2 wild-type ADP-Glo kinase assay; assay type: biochemical; settings: read-out: LRRK2 WT ADPGlo IC50
# [1] = Hepatic microsomal intrinsic clearance assay; assay type: in vitro ADME; settings: for CLint scaled at 1 μM: pooled liver microsomes, pH 7.4, liver microsomes 0.5 mg/mL, NADPH, 1 hour at 37° C., LLOQ 0.36 L/h/kg
# Outline: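 Compounds at 1 μM final were incubated with pooled liver microsomes (0.5 mg/mL) in phosphate buffer pH 7.4 at 37 °C for up to 60 min. Samples taken at 0, 5, 10, 20, 30 and 60 min were quenched with acetonitrile and analysed by LC-MS/MS.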
# [2] = system: pooled donor, cryopreserved hepatocytes; assay: Hepatocyte intrinsic clearance assay; assay type: in vitro ADME, Human; settings: based on hepatocyte CLint values of Table 5
# Outline: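 Compound (0.05 μM final, 0.05% organic) was incubated with pooled-donor cryopreserved hepatocytes (1×10^6/mL) in supplemented Leibovitz L-15, pH 7.4, at 37° C with shaking for 2 h. Samples were taken from 1 to 120 min, quenched in acetonitrile and analyzed by LC-MS/MS.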
# [3] = system: panel of 403 wild type kinases; assay: Broad kinase selectivity, KINOMEscan scanMAX panel; assay type: binding, primarily of human origin; settings: 10 nM
# Description: Protein kinase profiling of the inhibitors (Fabian, M. A. et al. A small molecule-kinase interaction map for clinical kinase inhibitors. Nat. Biotechnol. 23, 329-336 (2005)) were undertaken at a concentration of 0.010 μM and carried out in Eurofins DiscoverX KINOMEscan scanMAX panel of 403 wild type kinases (primarily of human origin) covering AGC (PKA, PKG, PKC family kinases), CAMK (Calcium/calmodulin-dependent protein kinases), CK1 (Casein kinase 1 kinases), CMGC (CDK, MAPK, GSK3, CLK families), STE (homologs of yeast Sterile 7, Sterile 11, Sterile 20 kinases), TK (Tyrosine kinases), TKL (Tyrosine kinase-like kinases), lipid and atypical kinase families.
# Selectivity Score or S-score is a quantitative measure of compound selectivity. It was calculated by dividing the number of kinases that a compound binds to by the total number of distinct kinases tested, excluding mutant variants. S=Number of hits/Number of assays. This value can be calculated using % Ctrl as a potency threshold (below) and provides a quantitative method of describing compound selectivity to facilitate comparison of different compounds.
# [4] = 0.5 nM kinase, 1.0 mM ATP, IC50=Ki,app+[E]/2, n≥2 tests
# Sequence of LRRK2 WT (Q5S007 970-2527): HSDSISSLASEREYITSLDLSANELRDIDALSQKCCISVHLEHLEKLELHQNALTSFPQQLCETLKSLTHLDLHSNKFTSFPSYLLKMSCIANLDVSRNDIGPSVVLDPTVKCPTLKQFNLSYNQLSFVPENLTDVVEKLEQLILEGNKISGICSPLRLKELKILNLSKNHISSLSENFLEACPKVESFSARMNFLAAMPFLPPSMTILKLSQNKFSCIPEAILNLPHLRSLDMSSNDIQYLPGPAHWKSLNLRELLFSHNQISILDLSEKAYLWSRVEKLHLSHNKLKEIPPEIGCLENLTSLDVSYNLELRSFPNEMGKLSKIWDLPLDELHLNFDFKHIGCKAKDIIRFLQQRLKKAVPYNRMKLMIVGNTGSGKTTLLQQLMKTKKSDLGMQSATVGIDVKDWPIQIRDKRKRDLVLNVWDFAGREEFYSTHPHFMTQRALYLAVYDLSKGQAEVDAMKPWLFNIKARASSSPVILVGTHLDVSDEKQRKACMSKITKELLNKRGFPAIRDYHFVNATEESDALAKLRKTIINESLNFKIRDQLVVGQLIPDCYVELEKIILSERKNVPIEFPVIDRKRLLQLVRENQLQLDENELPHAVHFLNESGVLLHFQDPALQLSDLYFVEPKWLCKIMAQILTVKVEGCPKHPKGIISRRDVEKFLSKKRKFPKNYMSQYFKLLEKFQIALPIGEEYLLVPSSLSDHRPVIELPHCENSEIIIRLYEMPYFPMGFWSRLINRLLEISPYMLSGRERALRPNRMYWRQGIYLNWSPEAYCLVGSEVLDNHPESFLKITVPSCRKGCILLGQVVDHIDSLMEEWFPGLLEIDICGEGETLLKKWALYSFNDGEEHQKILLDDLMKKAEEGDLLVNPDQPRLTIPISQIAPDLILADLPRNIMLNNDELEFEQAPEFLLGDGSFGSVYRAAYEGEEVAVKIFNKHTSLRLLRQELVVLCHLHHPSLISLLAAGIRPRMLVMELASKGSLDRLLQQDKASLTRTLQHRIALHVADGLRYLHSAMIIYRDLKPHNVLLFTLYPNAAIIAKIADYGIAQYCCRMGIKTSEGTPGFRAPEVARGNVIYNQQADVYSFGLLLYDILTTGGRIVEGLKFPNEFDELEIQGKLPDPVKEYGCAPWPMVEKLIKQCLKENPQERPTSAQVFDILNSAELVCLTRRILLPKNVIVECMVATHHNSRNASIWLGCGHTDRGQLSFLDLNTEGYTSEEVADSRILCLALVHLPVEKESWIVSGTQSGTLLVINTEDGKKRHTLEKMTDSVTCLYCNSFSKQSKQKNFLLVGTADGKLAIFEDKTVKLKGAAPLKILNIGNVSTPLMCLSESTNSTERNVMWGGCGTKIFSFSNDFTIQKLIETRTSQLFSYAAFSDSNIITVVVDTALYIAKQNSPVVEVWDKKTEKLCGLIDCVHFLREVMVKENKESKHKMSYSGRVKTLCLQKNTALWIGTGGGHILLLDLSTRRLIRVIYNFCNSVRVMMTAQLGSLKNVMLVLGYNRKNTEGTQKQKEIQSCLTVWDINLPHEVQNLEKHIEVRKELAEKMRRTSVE
SMILES,IC50 (LRRK2 WT; [4]) [nM],CLint scaled at 1 μM [1] [L/h/kg],other results
"Cc1nc(C)c(-n2nc3c(c2C)Nc2ncc4c(Cl)nn(c4n2)CCCO3)cc1F [Example 15, 8-Chloro-2-(5-fluoro-2,6-dimethylpyridin-3-yl)-3-methyl-2,4,12,13-tetrahydro-11H-5,7-(azenometheno)dipyrazolo[3,4-b:5′,1′-g][1]oxa[4,6,8]triazacycloundecine]",0.66,0.72,
"COc1ncc(C)cc1-n1nc2c(c1C)Nc1ncc3c(Cl)nn(c3n1)CCCO2 [Example 12, 8-Chloro-2-(2-methoxy-5-methylpyridin-3-yl)-3-methyl-2,4,12,13-tetrahydro-11H-5,7-(azenometheno)dipyrazolo[3,4-b:5′,1′-g][1]oxa[4,6,8]triazacycloundecine]",0.63,1.01,
"COc1nc(C)ccc1-n1nc2c(c1C)Nc1ncc3c(Cl)nn(c3n1)CCCO2 [Example 13, 8-Chloro-2-(2-methoxy-6-methylpyridin-3-yl)-3-methyl-2,4,12,13-tetrahydro-11H-5,7-(azenometheno)dipyrazolo[3,4-b:5′,1′-g][1]oxa[4,6,8]triazacycloundecine]",0.33,1.82,Rate of metabolism classification (hepatocyte CLint) [2]: moderate to high rate of metabolism; Rate of metabolism classification (liver microsomal CLint) ([1]; based on liver microsomal CLint values of Table 6): moderate to high rate of metabolism
"COc1nccc(C)c1-n1nc2c(c1C)Nc1ncc3c(Cl)nn(c3n1)CCCO2 [Example 7, 8-Chloro-2-(2-methoxy-4-methylpyridin-3-yl)-3-methyl-2,4,12,13-tetrahydro-11H-5,7-(azenometheno)dipyrazolo[3,4-b:5′,1′-g][1]oxa[4,6,8]triazacycloundecine]",0.78,0.97,
"COc1nc(C)ncc1-n1nc2c(c1C)Nc1ncc3c(Cl)nn(c3n1)CCCO2 [Example 22, 8-Chloro-2-(4-methoxy-2-methylpyrimidin-5-yl)-3-methyl-2,4,12,13-tetrahydro-11H-5,7-(azenometheno)dipyrazolo[3,4-b:5′,1′-g][1]oxa[4,6,8]triazacycloundecine]",,< 0.36,IC50 (LRRK2 WT): 0.6 nM
"COc1ncccc1-n1nc2c(c1C)Nc1ncc3c(Cl)nn(c3n1)CCCO2 [Example 1, 8-Chloro-2-(2-methoxypyridin-3-yl)-3-methyl-2,4,12,13-tetrahydro-11H-5,7-(azenometheno)dipyrazolo[3,4-b:5′,1′-g][1]oxa[4,6,8]triazacycloundecine]",0.46,0.58,"Selectivity Score S(1) ([3]; hits with % Ctrl <1 / 403 non-mutant kinases): 0.005; Selectivity Score S(10) ([3]; hits with % Ctrl <10 / 403 non-mutant kinases): 0.01; Selectivity Score S(35) ([3]; hits with % Ctrl <35 / 403 non-mutant kinases): 0.03; Number of Hits, S(1) ([3]; kinases with % Ctrl <1, 403 non-mutant kinases, includes LRRK2 WT): 2; Number of Hits, S(10) ([3]; kinases with % Ctrl <10, 403 non-mutant kinases): 4; Number of Hits, S(35) ([3]; kinases with % Ctrl <35, 403 non-mutant kinases): 12"
"Cc1c2c(nn1-c1cccnc1C(C)(F)F)OCCCn1nc(Cl)c3cnc(nc31)N2 [Example 14, 8-Chloro-2-(2-(1,1-difluoroethyl)pyridin-3-yl)-3-methyl-2,4,12,13-tetrahydro-11H-5,7-(azenometheno)dipyrazolo[3,4-b:5′,1′-g][1]oxa[4,6,8]triazacycloundecine]",1.5,1.03,
